Experimental data reported in ChEMBL document CHEMBL1201862, “PubChem BioAssay data set” (2004).
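Test compounds were applied to cells in 96-well plates for 48 hours at 5 doses. Abbreviation: GI50, concentration required for 50% inhibition of growth.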 Calls of active or inactive are those of the source. Rule as the data show it: active = GI50 up to about 1.1 µM and inactive = higher.

What was measured:
Assay in all cases: inhibition of tumour cell growth, NCI panel, 48 h
[1] = test system: M14
[2] = test system: RPMI-8226
[3] = test system: SK-OV-3
[4] = test system: KM-20L2
[5] = test system: SF-539
[6] = test system: SR
[7] = test system: IGROV-1
[8] = test system: NCI-H522
[9] = test system: SNB-78
[10] = test system: SK-MEL-28
[11] = test system: RXF 631
[12] = test system: A549
[13] = test system: SNB-19
[14] = test system: UACC-257
[15] = test system: HCT-116
[16] = test system: NCI-H23
[17] = test system: UO-31
[18] = test system: TK-10
[19] = test system: 786-0
[20] = test system: A498
[21] = test system: HT-29
[22] = test system: SF-268
[23] = test system: NCI-H226
[24] = test system: KM12
[25] = test system: SW-620
[26] = test system: PC-3
[27] = test system: OVCAR-4
[28] = test system: DLD-1
[29] = test system: ACHN
[30] = test system: CAKI-1
[31] = test system: MCF7
[32] = test system: COLO 205
[33] = test system: XF498
[34] = test system: HL-60
[35] = test system: LXFL 529
[36] = test system: HOP-18
[37] = test system: DMS-114
[38] = test system: MDA-MB-435
[39] = test system: MOLT-4
[40] = test system: OVCAR-3
[41] = test system: SNB-75
[42] = test system: HOP-62
[43] = test system: LOX IMVI
[44] = test system: BT-549
[45] = test system: SK-MEL-2
[46] = test system: HOP-92
[47] = test system: U-251
[48] = test system: SF-295
[49] = test system: CCRF-CEM
[50] = test system: M19-MEL
[51] = test system: Malme-3M
[52] = test system: RXF 393
[53] = test system: NCI-H460
[54] = test system: NCI/ADR-RES
[55] = test system: MDA-MB-231
[56] = test system: MDA-N
[57] = test system: UACC-62
[58] = test system: HCC 2998
[59] = test system: K562
[60] = test system: SN12C
[61] = test system: DU-145
[62] = test system: OVCAR-5
[63] = test system: DMS-273
[64] = test system: SK-MEL-5
[65] = test system: EKVX
[66] = test system: T47D
[67] = test system: Hs-578T
[68] = test system: HCT-15
[69] = test system: OVCAR-8

In the case of `Clc1ccc2c(c1)[nH]c1c2nc2ccccn21`, the GI50 [1] is reported as 20.2 µM (inactive), the GI50 [2] is reported as 14.7 µM (inactive) and the GI50 [3] is reported as 27.3 µM (inactive). For the same molecule, the GI50 [4] was 14.7 µM (inactive), the GI50 [5] was 15.9 µM (inactive) and the GI50 [6] was 17.1 µM (inactive). For the same molecule, the GI50 [7] was 40.8 µM (inactive), the GI50 [8] was 19.8 µM (inactive) and the GI50 [9] was 23.6 µM (inactive). For the same molecule, the GI50 [10] was 17.4 µM (inactive), the GI50 [11] was 22.5 µM (inactive) and the GI50 [12] was 25.1 µM (inactive). The GI50 [13] was 19.4 µM (inactive), the GI50 [14] was 16.7 µM (inactive) and the GI50 [15] was 19.3 µM (inactive). For the same molecule, the GI50 [16] was 21.6 µM (inactive), the GI50 [17] was 18.4 µM (inactive) and the GI50 [18] was 16.8 µM (inactive). For the same molecule, the GI50 [19] was 18.9 µM (inactive), the GI50 [20] was 24.2 µM (inactive) and the GI50 [21] was 15.2 µM (inactive). The GI50 [22] was 19 µM (inactive), the GI50 [23] was 25.4 µM (inactive) and the GI50 [24] was 16.9 µM (inactive). The GI50 [25] was 24.8 µM (inactive).

For `CN(C)c1nc(N(C)C)nc(N(C)C)n1` [ALTRETAMINE], the GI50 [1] was > 150 µM (inactive), the GI50 [2] was > 143 µM (inactive) and the GI50 [26] was > 150 µM (inactive). For the same molecule, the GI50 [3] was > 150 µM (inactive), the GI50 [27] was > 143 µM (inactive) and the GI50 [4] was > 150 µM (inactive). For the same molecule, the GI50 [28] was > 132 µM (inactive), the GI50 [29] was > 150 µM (inactive) and the GI50 [5] was > 143 µM (inactive). The GI50 [6] was > 150 µM (inactive), the GI50 [30] was 130 µM (inactive) and the GI50 [31] was > 150 µM (inactive). For the same molecule, the GI50 [32] was > 148 µM (inactive), the GI50 [33] was 109 µM (inactive) and the GI50 [34] was > 142 µM (inactive). For the same molecule, the GI50 [35] was > 150 µM (inactive), the GI50 [7] was > 123 µM (inactive) and the GI50 [36] was 53.3 µM (inactive). The GI50 [37] was > 148 µM (inactive), the GI50 [38] was > 150 µM (inactive) and the GI50 [8] was 141 µM (inactive). For the same molecule, the GI50 [39] was 133 µM (inactive), the GI50 [9] was > 150 µM (inactive) and the GI50 [40] was 142 µM (inactive). For the same molecule, the GI50 [41] was 130 µM (inactive), the GI50 [42] was 139 µM (inactive) and the GI50 [10] was > 150 µM (inactive). For the same molecule, the GI50 [12] was > 147 µM (inactive), the GI50 [13] was > 144 µM (inactive) and the GI50 [43] was > 145 µM (inactive). The GI50 [14] was > 150 µM (inactive), the GI50 [44] was > 150 µM (inactive) and the GI50 [45] was > 150 µM (inactive). The GI50 [15] was > 150 µM (inactive), the GI50 [16] was > 143 µM (inactive) and the GI50 [17] was > 147 µM (inactive). For the same molecule, the GI50 [46] was 147 µM (inactive), the GI50 [47] was > 150 µM (inactive) and the GI50 [48] was > 150 µM (inactive). The GI50 [18] was > 150 µM (inactive), the GI50 [49] was > 147 µM (inactive) and the GI50 [50] was > 144 µM (inactive). The GI50 [51] was > 147 µM (inactive), the GI50 [52] was > 150 µM (inactive) and the GI50 [53] was > 124 µM (inactive). The GI50 [54] was > 114 µM (inactive), the GI50 [55] was > 150 µM (inactive) and the GI50 [56] was > 150 µM (inactive). For the same molecule, the GI50 [19] was > 150 µM (inactive), the GI50 [57] was > 150 µM (inactive) and the GI50 [20] was > 148 µM (inactive). For the same molecule, the GI50 [58] was > 123 µM (inactive), the GI50 [59] was > 148 µM (inactive) and the GI50 [60] was > 150 µM (inactive). The GI50 [21] was > 150 µM (inactive), the GI50 [61] was > 150 µM (inactive) and the GI50 [62] was > 147 µM (inactive). For the same molecule, the GI50 [22] was > 150 µM (inactive), the GI50 [23] was > 150 µM (inactive) and the GI50 [63] was > 140 µM (inactive). For the same molecule, the GI50 [64] was 136 µM (inactive), the GI50 [65] was > 150 µM (inactive) and the GI50 [24] was > 150 µM (inactive). For the same molecule, the GI50 [66] was > 150 µM (inactive), the GI50 [67] was > 150 µM (inactive) and the GI50 [25] was > 150 µM (inactive). For the same molecule, the GI50 [68] was > 122 µM and the GI50 [69] was > 150 µM (inactive).

In the case of `CCc1ccc(NC(=O)NC(=O)c2ccccc2[N+](=O)[O-])cc1Oc1ncc(Cl)cn1`, the GI50 [1] is reported as 0.0231 µM (active), the GI50 [2] is reported as < 0.0159 µM (active) and the GI50 [26] is reported as < 0.01 µM (active). The GI50 [3] was < 0.0164 µM (active), the GI50 [27] was 2.61 µM (inactive) and the GI50 [4] was 0.0148 µM (active). For the same molecule, the GI50 [28] was < 0.0192 µM (active), the GI50 [29] was 0.0386 µM (active) and the GI50 [5] was 0.0137 µM (active). The GI50 [6] was 0.0247 µM (active), the GI50 [30] was < 0.01 µM (active) and the GI50 [31] was < 0.01 µM (active). For the same molecule, the GI50 [32] was 0.0304 µM (active), the GI50 [33] was < 0.01 µM (active) and the GI50 [34] was < 0.013 µM (active). For the same molecule, the GI50 [35] was < 0.0185 µM (active), the GI50 [7] was < 0.0165 µM (active) and the GI50 [36] was > 100 µM (inactive). The GI50 [37] was 0.0174 µM (active), the GI50 [38] was < 0.01 µM (active) and the GI50 [8] was 0.0135 µM (active). The GI50 [39] was 0.0247 µM (active), the GI50 [9] was 0.0279 µM (active) and the GI50 [40] was 0.0147 µM (active). The GI50 [41] was < 0.01 µM (active), the GI50 [42] was < 0.0154 µM (active) and the GI50 [10] was 0.37 µM (active). The GI50 [12] was 0.0213 µM (active), the GI50 [13] was 0.0495 µM (active) and the GI50 [43] was 0.0189 µM (active). For the same molecule, the GI50 [14] was < 0.01 µM (active), the GI50 [44] was 0.0815 µM (active) and the GI50 [45] was < 0.01 µM (active). The GI50 [15] was 0.0331 µM (active), the GI50 [16] was < 0.0174 µM (active) and the GI50 [17] was < 0.01 µM (active). The GI50 [46] was < 0.01 µM (active), the GI50 [47] was 0.0181 µM (active) and the GI50 [48] was < 0.0222 µM (active). For the same molecule, the GI50 [18] was 1.96 µM (inactive), the GI50 [49] was 0.0213 µM (active) and the GI50 [50] was < 0.0275 µM (active). The GI50 [51] was < 0.01 µM (active), the GI50 [52] was < 0.01 µM (active) and the GI50 [53] was 0.0158 µM (active). The GI50 [55] was 0.0376 µM (active), the GI50 [56] was < 0.01 µM (active) and the GI50 [19] was 0.0158 µM (active). The GI50 [57] was < 0.0177 µM (active), the GI50 [20] was < 0.01 µM (active) and the GI50 [58] was 0.027 µM (active). The GI50 [59] was < 0.0145 µM (active), the GI50 [60] was 0.0308 µM (active) and the GI50 [21] was 0.0179 µM (active). The GI50 [61] was 0.0578 µM (active), the GI50 [62] was < 0.0301 µM (active) and the GI50 [22] was 0.0287 µM (active). For the same molecule, the GI50 [23] was 0.0151 µM (active), the GI50 [63] was < 0.0149 µM (active) and the GI50 [64] was < 0.0139 µM (active). For the same molecule, the GI50 [65] was 7.06 µM (inactive), the GI50 [24] was < 0.0161 µM (active) and the GI50 [67] was < 0.01 µM (active). For the same molecule, the GI50 [25] was 0.0168 µM (active), the GI50 [68] was 0.0141 µM and the GI50 [69] was 0.0264 µM (active).
